Structures are written as SMILES.

Chain of PDE1B (Q01064 whole entry): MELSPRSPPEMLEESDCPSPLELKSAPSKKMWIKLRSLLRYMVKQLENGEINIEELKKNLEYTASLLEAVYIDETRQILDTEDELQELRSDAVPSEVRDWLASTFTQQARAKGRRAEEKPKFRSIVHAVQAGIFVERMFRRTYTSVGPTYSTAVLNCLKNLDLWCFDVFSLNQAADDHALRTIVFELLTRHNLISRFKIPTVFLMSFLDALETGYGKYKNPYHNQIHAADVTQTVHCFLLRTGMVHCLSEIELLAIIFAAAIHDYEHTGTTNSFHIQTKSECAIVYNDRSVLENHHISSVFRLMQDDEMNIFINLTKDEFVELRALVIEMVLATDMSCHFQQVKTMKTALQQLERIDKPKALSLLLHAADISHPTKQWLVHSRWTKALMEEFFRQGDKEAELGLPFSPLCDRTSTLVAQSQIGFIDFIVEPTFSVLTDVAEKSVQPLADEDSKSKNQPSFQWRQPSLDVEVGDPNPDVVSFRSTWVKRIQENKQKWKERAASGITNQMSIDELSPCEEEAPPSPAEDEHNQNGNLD

This test has as its target PDE1B (Homo sapiens, UniProt Q01064). Kind of test: In vitro HTRF PDE1 inhibition assay (PDE1B). The format is biochemical. Conditions: 100 nM cyclic GMP, calmodulin, 45 minutes at 37° C. For orientation: Time-resolved FRET reads energy transfer from a long-lived donor to a nearby acceptor.
Source text: The HTRF PDE1 assay utilized the HTRF technology, which is based on the competition between unlabeled cyclic nucleotide and cyclic nucleotide labeled with XL665 for the binding to cyclic nucleotide-specific antibody labeled with cryptate. The HTRF signal is thus inversely proportional to the concentration of cyclic nucleotide being measured. Since phosphodiesterases break down cyclic nucleotides the HTRF signal was used to determine PDE activity.
The Cisbio cGMP HTRF assay kit (Cat no: 62GM2PEC) was utilized. Cyclic GMP was diluted to 200 nM in HTRF assay buffer (1 mM CaCl2, 10 mM MgCl2, 10 mM Tris-HCl, 0.1% BSA, pH7.4). […] PDE (1A3, 1B or 1C) was diluted to 2× working concentration in HTRF assay buffer with 4 μg/ml Calmodulin, and 10 μl was added to initiate the reaction. The plate was then incubated for 45 minutes at 37° C. d2-Labelled cyclic GMP and anti-cGMP cryptate were diluted in 50 mM phosphate buffer, 0.8M KF, 1% Triton X100, 0.2% BSA, pH7.0. Following incubation 10 μl d2-cGMP, then 10 μl anti cGMP cryptate were added to each well and the plate was incubated for 45 minutes at rt. The plate was then read on Perkin Elmer Victor at 2 different FRET readings ex/emm 340 nm/665 nm and 340 nm/615 nm.
Broadly, the IC50 is the point on the concentration scale where inhibition reaches its midpoint. A high value points to weaker potency in that assay. In the case of `O=c1c2cnc(C3CCOCC3)n2nc2n1C[C@@H](c1ccc(Cl)cc1)N2` [Example 138], the half-inhibitory concentration (IC50) was under 1 µM.
With `COc1ccc([C@@H]2Cn3c(nn4c(C5CCOCC5)ncc4c3=O)N2)cc1` [Example 140] the figure was under 1 µM.
The molecule `CC(C)n1ncc2c(=O)n3c(nc21)N[C@H](c1ccc(Cl)cc1)C3` [Example 143] yielded an IC50 of under 1 µM.
With `COc1ccc([C@H]2Cn3c(nc4c(cnn4C(C)C)c3=O)N2)cc1` [Example 146] the figure was under 1 µM.
As for `O=c1c2cnn(C3CCOCC3)c2nc2n1C[C@@H](c1ccc(Cl)cc1)N2` [Example 147], the figure is 1 to 10 µM; as for `O=c1c2cnn(C3CCOCC3)c2nc2n1C[C@H](c1ccc(Cl)cc1)N2` [Example 148], under 1 µM.
With `CC(C)c1onc2c(=O)n3c(nc12)N[C@@H](c1ccc(Cl)cc1)CC3` [Example 152, (6R)-6-(4-Chlorophenyl)-3-isopropyl-4,6,7,8-tetrahydro-10H-[1,2]oxazolo[4,3-d]pyrimido[1,2-a]pyrimidin-10-one] the figure was 1 to 10 µM; with `O=c1c2noc(C3CCCC3)c2nc2n1CC[C@H](c1ccc(Cl)cc1)N2` [Example 153], 10 to 100 µM; with `N#Cc1ccc(C2CCn3c(nc4c(C5CCCC5)onc4c3=O)N2)cc1` (stereo not shown) [Example 154], 1 to 10 µM.
`O=c1c2noc(C3CCOCC3)c2nc2n1CC[C@H](c1ccc(Cl)cc1)N2` [Example 155] registered an IC50 of 1 to 10 µM.
With `N#Cc1ccc(C2CCn3c(nc4c(C5CCOCC5)onc4c3=O)N2)cc1` (stereo not shown) [Example 156] the figure was 10 to 100 µM.
Take `CC(C)c1onc2c(=O)n3c(nc12)NC(c1ccc(C#N)cc1)CC3` (stereo not shown) [Example 157]: the IC50 fell in the range of 1 to 10 µM.
With `CC(C)c1onc2c(=O)n3c(nc12)NC(c1cccc(Cl)c1)CC3` (stereo not shown) [Example 158] the figure was 1 to 10 µM; with `O=c1c2noc(C3CCOCC3)c2nc2n1CCC(c1cccc(Cl)c1)N2` (stereo not shown) [Example 159], 10 to 100 µM.
As for `CC(C)Cc1ncc2c(=O)n3c(nn12)N[C@@H](c1ccc(Cl)cc1)CC3` [Example 166], the figure is under 1 µM; as for `CCCc1ncc2c(=O)n3c(nn12)N[C@@H](c1ccc(Cl)cc1)CC3` [Example 167], under 1 µM; as for `O=c1c2ccnc(C3CCOCC3)c2nc2n1CCC(c1ccc(Cl)cc1)N2` (stereo not shown) [Example 172], 1 to 10 µM.
As for `CC(C)c1nccc2c(=O)n3c(nc12)NC(c1ccc(Cl)cc1)CC3` (stereo not shown) [Example 173], the figure is under 1 µM; as for `O=c1c2cnc(C3CCOCC3)n2nc2n1CCC1(CCc3ccccc31)N2` (stereo not shown) [Example 177, 9-(Tetrahydro-2H-pyran-4-yl)-2′,3,3′,4-tetrahydro-1H,6H-spiro[imidazo[5,1-f]pyrimido[2,1-c][1,2,4]triazine-2,1′-inden]-6-one], 1 to 10 µM; as for `O=c1c2cnc(C3CCOCC3)n2nc2n1CCC1(CCCc3ccccc31)N2` (stereo not shown) [Example 180], 1 to 10 µM.
With `CC(C)c1ncc2c(=O)n3c(nn12)NC(c1ccc(Cl)nc1)C3` (stereo not shown) [Example 181, 2-(6-Chloro-3-pyridinyl)-8-isopropyl-2,10-dihydro-3H,5H-diimidazo[2,1-c:5′,1′-f][1,2,4]triazin-5-one], the concentration for half-maximal inhibition (IC50) was under 1 µM.
With `O=c1c2cnc(C3CCOCC3)n2nc2n1CC(c1ccc(Cl)nc1)N2` (stereo not shown) [Example 183] the figure was under 1 µM; with `O=c1c2cnc(C3CCOCC3)n2nc2n1CC(c1ccc(F)nc1)N2` (stereo not shown) [Example 184], 1 to 10 µM; with `O=C1c2cnc([C@@H]3CCOC3)n2NC2=N[C@@H](c3ccc(Cl)cc3)CN12` [Example 185, (2S)-2-(4-Chlorophenyl)-8-[(3S)-tetrahydro-3-furanyl]-2,10-dihydro-3H,5H-diimidazo[2,1-c:5′,1′-f][1,2,4]triazin-5-one], under 1 µM.
As for `O=C1c2cnc([C@H]3CCOC3)n2NC2=N[C@@H](c3ccc(Cl)cc3)CN12` [Example 186, (2S)-2-(4-Chlorophenyl)-8-[(3R)-tetrahydro-3-furanyl]-2,10-dihydro-3H,5H-diimidazo[2,1-c:5′,1′-f][1,2,4]triazin-5-one], the figure is under 1 µM; as for `CO[C@H]1CC[C@@H](c2ncc3c(=O)n4c(nn32)N[C@@H](c2ccc(Cl)cc2)CC4)CC1` [Example 236], 1 to 10 µM; as for `O=c1c2cnc(CO)n2nc2n1CC[C@H](c1ccc(Cl)cc1)N2` [Example 237], 1 to 10 µM.
On to `COC(C)(C)c1ncc2c(=O)n3c(nn12)N[C@@H](c1ccc(Cl)cc1)CC3` [Example 240], for which the concentration for half-maximal inhibition (IC50) was under 1 µM.
With `C=C(C)c1ncc2c(=O)n3c(nn12)N[C@@H](c1ccc(Cl)cc1)CC3` [Example 241] the figure was under 1 µM.
As for `O=c1c2cnc(C3CC=CCC3)n2nc2n1CC[C@H](c1ccc(Cl)cc1)N2` (stereo partly shown) [Example 243], the figure is under 1 µM; as for `COCc1ncc2c(=O)n3c(nn12)N[C@@H](c1ccc(Cl)cc1)CC3` [Example 244], under 1 µM; as for `CC1(c2ncc3c(=O)n4c(nn23)N[C@@H](c2ccc(Cl)cc2)CC4)CCCC1` [Example 245], under 1 µM.
Molecule `O=c1c2cnc(C(F)(F)F)n2nc2n1CC[C@H](c1ccc(Cl)cc1)N2` [Example 246] registered an IC50 of 1 to 10 µM.
As for `O=c1c2cnc(CC3CC3)n2nc2n1CC[C@H](c1ccc(Cl)cc1)N2` [Example 247], the figure is under 1 µM; as for `C=Cc1ncc2c(=O)n3c(nn12)N[C@@H](c1ccc(Cl)cc1)CC3` [Example 248], 1 to 10 µM; as for `C[C@H](O)c1ncc2c(=O)n3c(nn12)N[C@@H](c1ccc(Cl)cc1)CC3` [Example 249], 1 to 10 µM.
As for `C[C@@H](O)c1ncc2c(=O)n3c(nn12)N[C@@H](c1ccc(Cl)cc1)CC3` [Example 250], the figure is under 1 µM; as for `O=c1c2cnc(C(F)(F)F)n2nc2n1C[C@H](c1ccc(Cl)cc1)N2` [Example 251, (2S)-2-(4-Chlorophenyl)-8-(trifluoromethyl)-2,10-dihydro-3H,5H-diimidazo[2,1-c:5′,1′-f][1,2,4]triazin-5-one], 1 to 10 µM; as for `CC(=O)c1ncc2c(=O)n3c(nn12)N[C@@H](c1ccc(Cl)cc1)CC3` [Example 252, (2R)-9-Acetyl-2-(4-chlorophenyl)-1,2,3,4-tetrahydro-6H-imidazo[5,1-f]pyrimido[2,1-c][1,2,4]triazin-6-one], 1 to 10 µM.
As for `O=c1c2cnc(C3CCNCC3)n2nc2n1CCC(c1ccc(Cl)cc1)N2` (stereo not shown) [Example 253, 2-(4-Chlorophenyl)-9-(4-piperidinyl)-1,2,3,4-tetrahydro-6H-imidazo[5,1-f]pyrimido[2,1-c][1,2,4]triazin-6-one], the figure is 1 to 10 µM; as for `CC(C)n1ncc2c(=O)n3c(nc21)NCCC3` [Example 254, 1-Isopropyl-6,7,8,10-tetrahydropyrazolo[3,4-d]pyrimido[1,2-a]pyrimidin-4(1H)-one], under 1 µM; as for `COc1ccc([C@@H]2CN3C(=O)c4cnc(C5(C(F)(F)F)CC5)n4NC3=N2)cc1` [Example 255, (2R)-2-(4-Methoxyphenyl)-8-[1-(trifluoromethyl)cyclopropyl]-2,10-dihydro-3H,5H-diimidazo[2,1-c:5′,1′-f][1,2,4]triazin-5-one], under 1 µM.
`COc1ccc([C@H]2CN3C(=O)c4cnc(C5(C(F)(F)F)CC5)n4NC3=N2)cc1` [Example 256, (2S)-2-(4-Methoxyphenyl)-8-[1-(trifluoromethyl)cyclopropyl]-2,10-dihydro-3H,5H-diimidazo[2,1-c:5′,1′-f][1,2,4]triazin-5-one] displayed a half-maximal inhibitory concentration (IC50) of under 1 µM.
`CC(C)c1ncc2c(=O)n3c(nn12)N[C@@H](c1ccc(O)cc1)C3` [Example 261, (2S)-2-(4-Hydroxyphenyl)-8-isopropyl-2,10-dihydro-3H,5H-diimidazo[2,1-c:5′,1′-f][1,2,4]triazin-5-one] displayed a half-maximal inhibitory concentration (IC50) of under 1 µM.
Take `CC(C)c1ncc2c(=O)n3c(nn12)NC(c1ccc(OCF)cc1)C3` (stereo not shown) [Example 262, 2-[4-(Fluoromethoxy)phenyl]-8-isopropyl-2,10-dihydro-3H,5H-diimidazo[2,1-c:5′,1′-f][1,2,4]triazin-5-one]: the IC50 is under 1 µM.
In turn, `Cc1cccc([C@@H]2CCn3c(nn4c(C5CCOCC5)ncc4c3=O)N2)c1` [Example 263, (2S)-2-(3-Methylphenyl)-9-(tetrahydro-2H-pyran-4-yl)-1,2,3,4-tetrahydro-6H-imidazo[5,1-f]pyrimido[2,1-c][1,2,4]triazin-6-one] gave an IC50 of under 1 µM.
As for `Cc1cccc([C@H]2CCn3c(nn4c(C5CCOCC5)ncc4c3=O)N2)c1` [Example 264, (2R)-2-(3-Methylphenyl)-9-(tetrahydro-2H-pyran-4-yl)-1,2,3,4-tetrahydro-6H-imidazo[5,1-f]pyrimido[2,1-c][1,2,4]triazin-6-one], the figure is under 1 µM; as for `CC(C)n1ncc2c(=O)n3c(nc21)NC(c1ccc(C#N)cc1)C3` (stereo not shown) [compound 87], under 1 µM.
`CC(C)n1ncc2c(=O)n3c(nc21)NC(c1ccc(C#N)cc1)CC3` (stereo not shown) [compound 88] registered a 50% inhibitory concentration (IC50) of under 1 µM.
